As a reminder, the inhibition is the drop in the measured response relative to a control, in per cent. A low value points to a response near the control.

Data on three compounds can be found in patent publication US20240238272A1, “TREATMENT OF ANTIPHOSPHOLIPID SYNDROME USING S-HYDROXYCHLOROQUINE” (Genovate Biotechnology Co. Ltd., priority 2021, published 2024).

In assay [1] the target is T1, β2-GP1 and antibody binding (Homo sapiens, UniProt P02749).
T1 construct: THP-1 is a human peripheral blood monocyte that highly expresses β2-GP1; endogenous in cells; host or cells: THP-1 (human monocyte cell line): total lysate in the dot blot, whole cells in the ELISA
T1 sequence (P02749 20-345): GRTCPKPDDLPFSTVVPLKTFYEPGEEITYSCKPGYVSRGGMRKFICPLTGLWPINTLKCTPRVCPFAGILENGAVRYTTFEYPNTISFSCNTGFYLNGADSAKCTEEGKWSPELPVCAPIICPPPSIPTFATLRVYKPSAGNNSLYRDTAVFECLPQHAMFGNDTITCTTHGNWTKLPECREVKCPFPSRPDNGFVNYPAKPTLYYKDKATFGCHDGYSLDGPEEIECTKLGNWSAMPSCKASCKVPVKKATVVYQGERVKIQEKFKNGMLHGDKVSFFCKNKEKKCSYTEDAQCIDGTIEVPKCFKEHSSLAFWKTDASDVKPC
As to the kind of experiment: Dot blot assay of β2-GP1 and antibody binding, THP-1 total lysate. The following applies: 10 mg/mL, mean ± S.E.M., triplicate. The protocol: THP-1 is a human peripheral blood monocyte that highly expresses β2-GP1 and is associated with increased APS in patients. Before treating with HCQ, THP-1 cells were fixed in a 3.7% paraformaldehyde solution, blocked in a phosphate-buffered saline (PBS) containing 1% bovine serum albumin (BSA), and incubated with a mouse aPL antibody (A500-006A, Bethyl Laboratories, Montgomery, Texas). Cellular immunofluorescent staining was used to determine β2-GP1 expression.
Separate samples were prepared for a dot blot assay as follows: a THP-1 total lysate was loaded to a polyvinylidene difluoride membrane, blocked with PBS containing 1% BSA, and incubated with mouse anti-β2-GP1 A500-006A, together with S-HCQ, R-HCQ, or racemic HCQ, each at a concentration of 10 mg/mL. A control sample was obtained following the same procedure described above except that no HCQ was added.
(§1) All assays above were performed in triplicate. Reported results are expressed as means±S.E.M. All statistical analyses were performed using a software under the trademark of GraphPad Prism® (Version 8.0. GraphPad Software Inc, San Diego, California). For comparisons between two groups, student's test was used. A p-value<0.05 was considered statistically significant.

The target in assay [2] is T2, β2-GP1 and antibody binding (THP-1 cells) (Homo sapiens, UniProt P02749).
T2 construct: THP-1 is a human peripheral blood monocyte that highly expresses β2-GP1; endogenous in cells; host or cells: THP-1 (human monocyte cell line): total lysate in the dot blot, whole cells in the ELISA
T2 sequence (P02749 20-345): T1 sequence (P02749 20-345)
As to the kind of experiment: ELISA assay of β2-GP1-antibody binding to THP-1 membrane. The format is cell-based. The procedure: Subsequently, an ELISA assay was performed to determine whether S-HCQ or R-HCQ inhibiting binding of β2-GP1-antibody complexes to the THP-1 membrane. THP-1 cells thus treated were resuspended to a density of 3.6×10^5 cells/mL in a medium containing 80% RPMI-1640 (Thermo Fisher Scientific, Waltham, Massachusetts), 20% anti-β2-GP1 immunoglobulin G (“IgG”) (0.2 mg/mL) in HEPES-buffered saline (HBS, pH 7.45), and S-HCQ. Three samples were each prepared from a medium having a different S-HCQ concentration, i.e., 1 μg/mL, 2.5 μg/mL, or 5 μg/mL. A control sample was obtained following the same procedure described above except that no S-HCQ was added. Optical absorbance was measured at 450 nm.
as §1

Assay [3] concerns annexin V on THP-1 cell surfaces. As to the kind of experiment: Restoration of annexin A5 anticoagulant shield on THP-1 cells treated with anti-β2-GP1 IgG. The format is cell-based, human. The following applies: 0.5 μg/mL HCQ; comparative sample without HCQ = 1. The procedure:
THP-1 cells were first maintained in a RPMI1640 medium (Thermo Fisher Scientific, Waltham, Massachusetts) containing 10% fetal bovine serum, 2 mM L-glutamine, and 50 U/mL penicillin-streptomycin antibiotics. They were then seeded at a density of 8×10^4 cells/well in a 96-well culture plate and were allowed to reach confluence. Subsequently, THP-1 cells were treated with anti-β2-GP1 IgG in the presence of 0.5 μg/mL HCQ. Levels of annexin V on cell surfaces were determined by optical absorbance after the IgG-treated THP-1 cells were rinsed with HBS-CaCl2) solution to remove free annexin V, leaving only annexin V that is attached to the cell surface.
Three samples were prepared each with one of three HCQ (i.e., S-HCQ, R-HCQ, and racemic HCQ) solutions. A comparative sample was obtained following the same procedure described above except that HCQ was not added. A patient serum containing β2-GP1 antibody was used as a control sample.

In the next assay the test system is VCAM-1. As to the kind of experiment: APS-related thrombosis mice model, serum expression level of VCAM-1. The class given is in vivo. The conditions noted are these: for Inhibition (VCAM-1): relative to comparative group; for Thrombosis (VCAM-1): serum expression level relative to comparative group. The procedure: (§2) Venous thrombosis was induced in mice using an endothelial injury model. Mice were intravenously (IV) injected 7.5% FeCl3 (positive control), saline (negative control), or an APS-derived anti-β2GP1 antibody (from Patient 2) at a dosage of 100, 200, or 300 AU (test group). They were anesthetized 72 hours after the injection. The right femoral vein was exposed and pinched with a pressure of 1500 g/mm^2 to induce formation of a thrombus.
(§3) Based on the APS animal model described above, R-HCQ and S-HCQ were administered to mice for reducing thrombosis. Mice were divided into 6 groups, each of which was injected with (1) IgG as a control group, (2) 100 AU of the anti-β2GPI antibody as a comparative group, (3) a combination of 100 AU of the anti-B2GPI antibody and 300 μg of S-HCQ as treatment group 3, (4) a combination of 100 AU of the anti-B2GPI antibody and 200 μg of S-HCQ as treatment group 4, (5) a combination of 100 AU of the anti-B2GPI antibody and 200 μg of R-HCQ as treatment group 5, or (6) a combination of 100 AU of the anti-β2GP1 antibody and 100 μg of R-HCQ as treatment group 6.
(§4) Serum expression levels of E-selectin and VCAM-1, two biomarkers of APS-related thrombosis, were measured. Percentages of inhibition in treatment groups 3-6 were calculated based on the expression levels of E-selectin and VCAM-1 relative to the comparative group. A low expression level of E-selectin or VCAM-1 indicates high inhibition of thrombosis.

Another assay relates to E-selectin. The assay can be described thus: APS-related thrombosis mice model, serum expression level of E-selectin. The following applies: for Inhibition (E-selectin): relative to comparative group; for Thrombosis (E-selectin): serum expression level relative to comparative group. The format is in vivo. The procedure: as §2, §3, §4
The subject of assay [4] is APS-related thrombosis (E-selectin and VCAM-1). As to the kind of experiment: APS-related thrombosis mice model, average of E-selectin and VCAM-1. The class given is in vivo. The procedure:
as §2, §3, §4

Assay [5] concerns thrombosis induced by anti-β2GP1 antibody. As to the kind of experiment: APS-related thrombosis mice model, femoral vein pinch, clot formation. The format is in vivo, C57BL/6 male mice. The protocol:
C57BL/6 male mice at ages of 8-12 weeks (purchased from BioLasco, Taiwan) were used in this study. All procedures were approved by the Institutional Animal Care Committee of Taipei Medical University. Venous thrombosis was induced in mice using an endothelial injury model. […] They were anesthetized 72 hours after the injection. The right femoral vein was exposed and pinched with a pressure of 1500 g/mm^2 to induce formation of a thrombus. […] As such, the anti-β2GP1 antibody was injected to a mouse at 100 AU for all studies below. Following the procedure described above, a mouse (i.e., HCQ-treated mouse) was injected with 100 AU of the anti-β2GP1 antibody from Patient 5 and 2000 μg racemic-HCQ (200 μl at 10 mg/ml). As a control, a group of mice (n=4; APS-induced mice) were injected with only 100 AU of the anti-β2GP1 antibody. After 72 hours, the right femoral vein of each mouse was exposed and pinched with a pressure of 1500 g/mm^2 to induce formation of a thrombus. Thrombosis time (in minute) was recorded. […] Clots were removed from the femoral vein after pinch for 5 minutes.

The structures appear in SMILES notation.

As for `CCN(CCO)CCC[C@H](C)Nc1ccnc2cc(Cl)ccc12` [S-HCQ, S-(+)-hydroxychloroquine], in assay [1], the “inhibition of β2-GP1 and antibody binding” value stood at 97%. For the same compound, the “inhibition rate of β2-GP1 and antibody binding” value in assay [2] (1 μg/mL) is reported as 25%; in assay [2] (2.5 μg/mL) it was 60%; in assay [2] (5 μg/mL), 90%. The “relative level of annexin V” value in assay [3] worked out at 3.45. Further, the “Inhibition (VCAM-1)” value in the assay with VCAM-1 (200 μg) came to 49%; in the assay with VCAM-1 (300 μg) it was 52%. The “Thrombosis (VCAM-1)” value worked out at 50.9% in the assay with VCAM-1 (200 μg) and 47.8% in the assay on VCAM-1 (300 μg). Also, the results for the “Inhibition (E-selectin)” value in the assay with E-selectin (200 μg) and in the assay with E-selectin (300 μg) were 53.8% and 59.4%, respectively. For the same compound, the “Thrombosis (E-selectin)” value with E-selectin (200 μg) is 46.2%; in the assay with E-selectin (300 μg), 40.6%. For the same compound, the “Inhibition Average” value in assay [4] (200 μg) is listed as 51.4%; in assay [4] (300 μg), 55.7%. Also, the “Thrombosis Average” value amounted to 48.55% in assay [4] (200 μg) and 44.2% in assay [4] (300 μg).

For the compound `CCN(CCO)CCC[C@@H](C)Nc1ccnc2cc(Cl)ccc12` [R-HCQ, (R)-(−)-hydroxychloroquine], the “inhibition of β2-GP1 and antibody binding” value in assay [1] is given as 23%. Besides, the “relative level of annexin V” value in assay [3] turned out to be 2.54. Besides, in the assay on VCAM-1 (100 μg), the “Inhibition (VCAM-1)” value is reported as 16.3% and the “Thrombosis (VCAM-1)” value was determined as 83.7%. In addition, in the assay on VCAM-1 (200 μg), the “Inhibition (VCAM-1)” value was 23% and the “Thrombosis (VCAM-1)” value is recorded as 75%. In the assay on E-selectin (100 μg), the “Inhibition (E-selectin)” value amounted to 25.2% and the “Thrombosis (E-selectin)” value was determined as 74.8%. Moreover, in the assay on E-selectin (200 μg), the “Inhibition (E-selectin)” value worked out at 30% and the “Thrombosis (E-selectin)” value was 70%. In assay [4] (100 μg), the “Inhibition Average” value is 20.75% and the “Thrombosis Average” value came to 79.25%. For the same compound, in assay [4] (200 μg), the “Inhibition Average” value is 26.5% and the “Thrombosis Average” value came out at 72.5%.

The compound `CCN(CCO)CCCC(C)Nc1ccnc2cc(Cl)ccc12` (racemic) [racemic HCQ, Hydroxychloroquine] displayed an inhibition at 10000 µg/mL in assay [1] of 80%. The thrombosis time in assay [5] (2000 μg with 100 AU anti-β2GP1 antibody, 72 hours after injection, healthy mice 5, APS-induced mice 2) was 5 min. The thrombus size entry in assay [5] (2000 μg, clots removed after pinch for 5 minutes, versus mice without HCQ treatment) is “significantly reduced the thrombus size”. Moreover, in assay [3], the “relative level of annexin V” value is 3.09.
